Results published in patent US12508237B2, “Pharmaceutical composition comprising 4-hexylresorcinol as active ingredient for prevention or treatment of bone disease” (KYUNGPOOK NATIONAL UNIVERSITY INDUSTRY-ACADEMIC COOPERATION …, priority 2019, dated 2025).

Key:
osteoblasts (MC3T3-E1) = assay: osteoblast differentiation by alkaline phosphatase (ALP) and Alizarin red staining; format: cell-based, mouse; conditions: MC3T3-E1 cells, 4-HR 10^−9 M to 10^−6 M (ALP, 7 days) or 10^−9 M to 10^−4 M (Alizarin red, 14-21 days)
Description: MC3T3-E1 (mouse calvaria osteoblast cell line) cells were cultured in α-MEM containing 10% (v/v) FBS, penicillin (100 units/ml), and streptomycin (100 units/ml) using a constant temperature and humidity incubator in the presence of 5% (v/v) CO2 at 37° C. When the culture dish was filled with osteoblasts with 100% confluency, 50 μg/ml of ascorbic acid and 10 mM of β-glycerophosphate were treated to induce cell differentiation. During cell differentiation, the differentiation medium was replaced every 3 days.
MC3T3-E1 and bone marrow stem cells were inoculated into a 48-well multi-plate at 5×10^4 cells/well, and culture was performed for 7 days with treatment of 4-hexylresorcinol (4-HR) at a concentration of 10^−9 M to 10^−6 M while a differentiation induction medium was replaced every 2 days. After the culture, cells were washed with PBS three times, and a fixative containing 5 ml of citrate acid, 13 ml of acetone, and 1.6 ml of a formaldehyde solution was treated for 45 seconds. Then, the cells were washed twice with PBS, treated with an alkaline-dye mixture, and reacted at room temperature in the darkness for 30 minutes. After removing the solution, cells were washed several times with PBS and observed under a microscope. […]

[1] = tested on: animal model with osteoporosis; assay: blood biochemical analysis of bone resorption and bone formation markers (CTX, ALP, RANKL) in animal model with osteoporosis; format: in vivo, mouse; conditions: 4-HR periodically applied to the skin
Description: To evaluate the effect of 4-hexylresorcinol (4-HR) on bone resorption and promoting bone formation, the levels of CTX, ALP, and RANKL in an animal model with osteoporosis were measured via blood biochemical analysis. CTX is used as a marker for evaluating the degree of bone resorption (bone destruction) in the blood, ALP is a marker that indicates the degree of bone formation secreted by osteoblasts, and RANKL is used as a marker that is secreted from osteoblasts and promotes differentiation of osteoclasts.

[2] = tested on: osteoporosis (OVX) induced mice; assay: micro-CT analysis of femur bone in ovariectomy (OVX) osteoporosis mouse model after 4-HR ointment application; format: in vivo; conditions: ointment containing 2% 4-HR applied to dorsal skin for 4 weeks, compared to osteoporosis (OVX) induced mice
Description: After separating the mouse femur and removing muscle, fixation was performed using 4% PFA at 4° C. for a day. The next day, washing was followed three times with PBS solution to be stored in PBS. The femur stored thereby was analyzed with a Skysan 1272 (Bruker, Massachusetts, USA) model by scanning, in units of 6 μm, the section from 1.6 mm to 2.3 mm below the growth plate. Using micro-CT, during the measurement of trabecular bone volume/tissue volume (BV/TV), trabecular thickness (Tb.Th), trabecular number (Tb.N), trabecular separation (Tb.Sp), and trabecular bone mineral density (BMD), bone volume/tissue volume (BV/TV) and bone mineral density (BMD) of cortical bone was measured as well.
To evaluate the effect of 4-hexylresorcinol (4-HR) on bone remodeling, the ointment containing 2% 4-HR was applied to the mouse dorsal skin for 4 weeks after induction of osteoporosis via ovariectomy (OVX) in a model with osteoporosis, and the change in bone volume was analyzed by micro-CT.

osteoclasts [3] = assay: osteoclast differentiation by TRAP staining; format: cell-based; design: dose or concentration left out as unconfirmed; conditions: mouse bone marrow cells with M-CSF and RANKL, 4 days, 4-HR
Description: Mouse bone marrow monocyte (BMM) cells were isolated from the femur and tibia in 8-week-old mice. Muscle was removed after the separation of the femur and tibia from the mice euthanized by cervical dislocation, both ends were cut out, and α-MEM was filtered with a syringe to separate bone marrow cells. After centrifuging the isolated bone marrow cells, red blood cell lysis solution was added to hemolyze red blood cells, and then culture was performed for a day in the α-MEM containing 10% (v/v) FBS, penicillin (100 units/ml), and streptomycin (100 units/ml) using the constant temperature and humidity incubator in the presence of 5% (v/v) CO2 at 37° C. Only suspending cells not adhering to the culture dish were collected, treated with 20 ng/ml of M-CSF, and cultured for 3 days to obtain bone marrow-derived monocyte/macrophage. In an attempt to differentiate macrophages into osteoclasts, 20 ng/ml of M-CSF and 30 ng/ml of RANKL were treated, followed by culture for 4 days. Media were replaced every 2 days while differentiation was induced.
Medullary mononuclear cells isolated from the femur and tibia of mice were treated with 20 ng/ml of M-CSF and reacted for a day. […]

osteoclasts [4] = assay: osteoclastic activity by Pit assay on bone slices; format: cell-based, mouse; conditions: differentiated osteoclasts on bone slices, treated with 4-HR for 2 days
Description: Monocytes were sterilized and inoculated on bone slices placed on a 96-well plate, followed by culture for 3 days in the presence of RANKL (30 ng/ml) and M-CSF (30 ng/ml). After 3 days, the differentiated osteoclasts were treated with 4-hexylresorcinol (4-HR), and a culture was performed for 2 days. After 2 days of culture, osteoclasts were removed and bone slices were reacted with horseradish peroxidase-wheat germ agglutinin (Sigma-Aldrich) and then stained with 3,3′-diaminobenzidine (Sigma-Aldrich). Stained cells were analyzed according to the manufacturer's method using a Java-based image analysis program (ImageJ).
To evaluate the effect of 4-hexylresorcinol (4-HR) on the differentiation and activity of osteoclasts, 4-hexylresorcinol (4-HR) was treated on osteoclasts, and cell differentiation and osteoclastic activity were checked by TRAP staining and PIT assay analysis.

For `CCCCCCc1ccc(O)cc1O` [4-hexylresorcinol (4-HR), 4-hexylbenzene-1,3-diol], the “differentiation of osteoblasts (ALP and Alizarin red staining)” value (osteoblasts (MC3T3-E1)) was “differentiation was promoted”, the “level of ALP (bone formation marker in blood)” value [1] was “increased” and the “level of CTX (bone resorption marker in blood)” value [1] was “decreased”. For the same molecule, the bone density [2] was “increased”, the bone volume [2] was “increased” and the trabecular number [2] was “increased”. The trabecular thickness [2] was “increased”, the “differentiation of osteoclasts (TRAP staining)” value (osteoclasts [3]) was “inhibited” and the “osteoclastic activity (PIT assay)” value (osteoclasts [4]) was “inhibited”.
